1 compound from ChEMBL document CHEMBL5728516, “4,6-substituted-pyrazolo[1,5-a]pyrazines as janus kinase inhibitors” (2021) can be followed below.

In this experiment the target is Tyrosine-protein kinase JAK2 (Homo sapiens, UniProt O60674). Kind of experiment: JAK2 Inhibition Assay: Compounds of Formula I were screened for their ability to inhibit JAK2 using the general enzyme inhibition assay method, in which the assay mixture contained 1 mM ATP, 10 μM Omnia® Y7 peptide (Catalog # IVGN KNZ3071C, Invitrogen Corporation, Carlsbad, Calif.) and 4 nM JAK2 in a total volume of 25 μL. JAK2 was purchased from Invitrogen Corporation, Carlsbad, Calif. (catalog # IVGN PV4288).
Chain of Tyrosine-protein kinase JAK2 (O60674 whole entry): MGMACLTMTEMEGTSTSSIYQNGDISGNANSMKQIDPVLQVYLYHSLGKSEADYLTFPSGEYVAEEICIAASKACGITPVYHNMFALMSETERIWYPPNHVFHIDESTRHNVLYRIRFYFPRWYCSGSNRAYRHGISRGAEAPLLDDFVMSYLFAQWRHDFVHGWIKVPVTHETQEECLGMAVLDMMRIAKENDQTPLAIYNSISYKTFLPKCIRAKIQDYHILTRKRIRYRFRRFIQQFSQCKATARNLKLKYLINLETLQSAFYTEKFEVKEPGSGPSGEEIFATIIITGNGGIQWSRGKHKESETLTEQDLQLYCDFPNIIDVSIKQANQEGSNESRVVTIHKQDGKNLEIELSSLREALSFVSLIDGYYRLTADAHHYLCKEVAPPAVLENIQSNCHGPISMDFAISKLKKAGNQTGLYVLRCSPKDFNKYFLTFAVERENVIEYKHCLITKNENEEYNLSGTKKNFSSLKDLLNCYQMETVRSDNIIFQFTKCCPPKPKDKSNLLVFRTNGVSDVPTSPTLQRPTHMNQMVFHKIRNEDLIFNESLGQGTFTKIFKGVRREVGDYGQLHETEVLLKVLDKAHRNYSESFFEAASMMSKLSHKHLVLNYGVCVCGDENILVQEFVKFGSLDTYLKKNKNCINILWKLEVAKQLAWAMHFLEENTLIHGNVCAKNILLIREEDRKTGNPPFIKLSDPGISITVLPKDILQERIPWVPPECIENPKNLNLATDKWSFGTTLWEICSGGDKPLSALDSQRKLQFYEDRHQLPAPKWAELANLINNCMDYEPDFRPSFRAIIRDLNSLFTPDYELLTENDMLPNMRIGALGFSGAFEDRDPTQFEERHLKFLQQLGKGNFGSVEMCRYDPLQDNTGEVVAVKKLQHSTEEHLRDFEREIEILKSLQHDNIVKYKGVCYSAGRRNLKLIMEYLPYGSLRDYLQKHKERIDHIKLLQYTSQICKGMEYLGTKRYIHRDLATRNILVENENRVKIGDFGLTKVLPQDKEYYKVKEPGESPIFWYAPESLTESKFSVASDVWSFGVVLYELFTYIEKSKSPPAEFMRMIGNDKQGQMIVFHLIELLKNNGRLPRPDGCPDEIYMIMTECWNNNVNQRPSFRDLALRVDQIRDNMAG

The structures appear in SMILES notation.

On to `CCC(CC)n1cc(-c2nc(-c3cnn([C@H]4C[C@](O)(CO)C4)c3)cn3nccc23)cn1`, for which the IC50 is < 10 nM.
